From US20260225997A1, “IONIZABLE AMINE LIPIDS” (Intellia Therapeutics, Inc., priority 2018, published 2026)
Where two headings read alike, the source gives them in different places.

Legend:
[1] = pKa measurement of unformulated amine lipid (fluorescence, method of Jayaraman et al.); type: physicochemical; details: 100 μM in 0.1 M phosphate buffer pH 4.5-9.0
Method: The pKa of each amine lipid was determined according to the method in Jayaraman, et al. (Angewandte Chemie, 2012) with the following adaptations. […] Lipid was diluted to 100 μM in 0.1 M phosphate buffer (Boston Bioproducts) where the pH ranged from 4.5-9.0. Fluorescence intensity was measured using excitation and emission wavelengths of 321 nm and 448 nm.

TTR [2] = assay: TTR editing in mouse liver by NGS after i.v. LNP delivery of Cas9 mRNA and sgRNA; type: in vivo; details: for TTR Editing (%) / % Editing (TTR, liver) / Editing Mean % Indel / Editing %: CD-1 female mice; for % Editing (TTR, liver): Example 55: 0.1 mpk i.v.; for Editing %: Example 56: 0.1 mpk i.v., G282
In short: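 Cas9 mRNA and chemically modified sgRNA were co-formulated in LNPs made of an ionizable amine lipid, DSPC, cholesterol and PEG-2k-DMG at a 6.0 N:P ratio. CD-1 female mice aged 6-10 weeks received tail-vein injections of 0.2 mL. Liver genomic DNA was then amplified around the target site and sequenced on an Illumina MiSeq, with editing calculated as indel-containing reads over total reads.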

TTR [3] = assay: Transthyretin (TTR) ELISA analysis of mouse serum after LNP dosing; type: in vivo; details: for response vs control in vivo at 0.1 mg/kg / response vs control in vivo at 0.03 mg/kg: read-out: Serum TTR % TSS
In short: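 Female CD-1 mice aged 6-10 weeks were grouped by body weight and given LNPs by lateral tail vein injection (0.2 mL per animal, about 10 mL per kilogram). Mice were bled by cardiac puncture under isoflurane into serum separator tubes. Serum was diluted 10,000-fold for the 0.1 mpk dose, and total TTR was quantified with a Mouse Prealbumin (Transthyretin) ELISA Kit following the kit directions.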

[4] = Example 53: 0.1 mpk i.v., 6 days post-dose, G282 1:1
[5] = Example 53: 0.3 mpk i.v., 6 days post-dose, G282 1:1
[6] = Example 58: 0.1 mpk i.v., 6 days post-dose, G282 1:1
[7] = Example 59: 0.1 mpk i.v., 7 days post-dose, G282 1:1
[8] = Example 60: 0.1 mpk i.v., 6 days post-dose, G502 1:2
[9] = Example 62: 0.03 mpk i.v., 7 days post-dose, G282 1:2
[10] = Example 62: 0.1 mpk i.v., 7 days post-dose, G282 1:2
[11] = Example 63: 0.03 mpk i.v., 7 days post-dose, G282 1:1
[12] = Example 63: 0.1 mpk i.v., 7 days post-dose, G282 1:1
[13] = Example 53: 0.1 mpk i.v., CD-1 female mice, 6 days post-dose, G282 1:1
[14] = Example 53: 0.3 mpk i.v., CD-1 female mice, 6 days post-dose, G282 1:1
[15] = Example 55: 0.1 mpk i.v., 7 days post-dose, G282 1:1
[16] = Mus musculus, iv, 144 h, Example 58: 0.1 mpk i.v., 6 days post-dose, G282 1:1
[17] = Mus musculus, iv, 144 h, Example 60: 0.1 mpk i.v., 6 days post-dose, G502 1:2
[18] = Mus musculus, iv, 168 h, Example 59: 0.1 mpk i.v., 7 days post-dose, G282 1:1
[19] = Mus musculus, iv, 168 h, Example 62: 0.03 mpk i.v., 7 days post-dose, G282 1:2
[20] = Mus musculus, iv, 168 h, Example 62: 0.1 mpk i.v., 7 days post-dose, G282 1:2
[21] = Mus musculus, iv, 168 h, Example 63: 0.03 mpk i.v., 7 days post-dose, G282 1:1
[22] = Mus musculus, iv, 168 h, Example 63: 0.1 mpk i.v., 7 days post-dose, G282 1:1
[23] = Example 61: 0.1 mpk i.v., 7 days post-dose, G282 1:1
[24] = Example 56: 0.1 mpk i.v., 7 days post-dose, G282
[25] = Mus musculus, iv, 168 h, Example 61: 0.1 mpk i.v., 7 days post-dose, G282 1:1
[26] = Example 64: Dose 0.03 mpk (table) i.v., 7 days post-dose, G282 1:1

Compound	pKa [1]	TTR Editing (%) (TTR [2]; [4])	TTR Editing (%) (TTR [2]; [5])	% Editing (TTR, liver) (TTR [2]; 7 days post-dose, G282 1:1) [%]	Editing Mean % Indel (TTR [2]; [7]) [%]	Editing Mean % Indel (TTR [2]; [9]) [%]	Editing Mean % Indel (TTR [2]; [10]) [%]	Editing Mean % Indel (TTR [2]; [11]) [%]	Editing Mean % Indel (TTR [2]; [12]) [%]	Serum TTR (TTR [3]; [7]) [µg/mL]	Serum TTR (TTR [3]; [9]) [µg/mL]	Serum TTR (TTR [3]; [10]) [µg/mL]	Serum TTR (TTR [3]; [11]) [µg/mL]	Serum TTR (TTR [3]; [12]) [µg/mL]	response vs control in vivo at 0.1 mg/kg (TTR [3]; [16]) [%]	response vs control in vivo at 0.1 mg/kg (TTR [3]; [18]) [%]	response vs control in vivo at 0.03 mg/kg (TTR [3]; [19]) [%]	response vs control in vivo at 0.1 mg/kg (TTR [3]; [20]) [%]	response vs control in vivo at 0.03 mg/kg (TTR [3]; [21]) [%]	response vs control in vivo at 0.1 mg/kg (TTR [3]; [22]) [%]	also measured
CCCCCCCCCOC(=O)CCCCCCCN(CCO)CCCCCCCC(OCCCCCCCC)OCCCCCCCC [Compound 1, nonyl 8-((8,8-bis(octyloxy)octyl)(2-hydroxyethyl)amino octanoate]	6.3	55.4	59.3	43	41.6	8.9	34.2	10.86	41.10	327	594	241	741.05	351.76	66	35	93	38	91.8	43.6	TTR editing in the liver compared with Compound 19 formulations (TTR [2]; Example 53 text: 0.1 and 0.3 mpk): higher TTR editing in the liver than Compound 19 formulations at each dose; editing of TTR (TTR [2]; Example 53 text: both the 0.1 mpk and 0.3 mpk doses): 55-60%; Editing Mean % Indel (TTR [2]; [6]): 29.5%; Editing Mean % Indel (TTR [2]; [8]): 46.3%; TSS (serum TTR % TSS) (TTR [3]; [4]): 5 % TSS; Serum TTR (TTR [3]; [13]): 19 µg/mL; TSS (serum TTR % TSS) (TTR [3]; [5]): 5 % TSS; Serum TTR (TTR [3]; [14]): 5 µg/mL; Serum TTR (TTR [3]; [15]): 391 µg/mL; Serum TTR (% TSS) (TTR [3]; [15]): 34 % TSS; Serum TTR (TTR [3]; [6]): 656 µg/mL; Serum TTR (TTR [3]; [8]): 353 µg/mL; response vs control in vivo at 0.1 mg/kg (TTR [3]; [17]): 25%
CCCCCCCCOC(CCCCCCCN(CCO)CCCCCCCC(=O)OC(CC)CCCCCCCC)OCCCCCCCC (centres unmarked) [Compound 17, undecan-3-yl 8-((8,8-bis(octyloxy)octyl)(2-hydroxyethyl)amino)octanoate]	6.21	–	–	–	–	4.0	45.9	–	–	–	495	304	–	–	48	–	78	48	–	–	Editing Mean % Indel (TTR [2]; [6]): 40.8%; Serum TTR (TTR [3]; [6]): 479 µg/mL
CCCCCCCCCOC(=O)CCCCCCCN(CCO)CCCCCCCC(=O)OC(CCCCCCCC)CCCCCCCC [Compound 18, heptadecan-9-yl 8-((2-hydroxyethyl)(8-(nonyloxy)-8-oxooctyl)amino)octanoate, reference compound]	6.6	–	–	–	41.6	–	–	–	–	324	–	–	–	–	–	35	–	–	–	–	Editing % (TTR [2]; 7 days post-dose): 33%; Editing Mean % Indel (TTR [2]; [23]): 26.8%; Serum TTR (TTR [3]; [24]): 415 µg/mL; Serum TTR (% TSS) (TTR [3]; [24]): 52 % TSS; Serum TTR (TTR [3]; [23]): 615 µg/mL; response vs control in vivo at 0.1 mg/kg (TTR [3]; [25]): 48%
CCCCC/C=C\C/C=C\CCCCCCCC(=O)OCC(COC(=O)CCC(OCCCCCCCC)OCCCCCCCC)COC(=O)OCCCN(CC)CC (centres unmarked) [Compound 19, 3-((4,4-bis(octyloxy)butanoyl)oxy)-2-(((((3-(diethylamino)propoxy))-carbonyl)oxy)methyl)propyl (9Z,12Z)-octadeca-9,12-dienoate, reference compound]	6.4	13.8	45.9	29	29.3	7.0	27.1	30.18	56.02	438	560	414	593.01	134.54	59	47	88	65	73.5	16.7	Editing % (TTR [2]; 7 days post-dose): 15%; Editing Mean % Indel (TTR [2]; [8]): 41.4%; Editing Mean % Indel (TTR [2]; [23]): 35.9%; Editing Mean % Indel (TTR [2]; [26]): 5.2%; TSS (serum TTR % TSS) (TTR [3]; [4]): 85 % TSS; Serum TTR (TTR [3]; [13]): 55 µg/mL; TSS (serum TTR % TSS) (TTR [3]; [5]): 3 % TSS; Serum TTR (TTR [3]; [14]): 55 µg/mL; Serum TTR (TTR [3]; [15]): 528 µg/mL; Serum TTR (% TSS) (TTR [3]; [15]): 46 % TSS; Serum TTR (TTR [3]; [24]): 865 µg/mL; Serum TTR (% TSS) (TTR [3]; [24]): 108 % TSS; Serum TTR (TTR [3]; [8]): 517 µg/mL; Serum TTR (TTR [3]; [23]): 438 µg/mL; Serum TTR (TTR [3]; [26]): 622.0 µg/mL; response vs control in vivo at 0.1 mg/kg (TTR [3]; [17]): 36%; response vs control in vivo at 0.1 mg/kg (TTR [3]; [25]): 34%; inhibition in vivo at 0.03 mg/kg (TTR [3]; Mus musculus, iv, 168 h, Example 64: Dose 0.03 mpk (table) i.v., 7 days post-dose, G282 1:1, read-out: Serum TTR (% KD)): -8.6%
CCCCCCCCOC(CCCCCCCN(CCO)CCCCCCCC(=O)OC(CC)CCCCCC)OCCCCCCCC (centres unmarked) [Compound 28, nonan-3-yl 8-((8,8-bis(octyloxy)octyl)(2-hydroxyethyl)amino)octanoate]	6.41	–	–	–	–	–	–	20.74	42.36	–	–	–	493.60	321.26	–	–	–	–	61.2	39.8	–
